Source: ChEMBL document CHEMBL1932950, “Inhibitory constituents of Nardostachys chinensis on nitric oxide production in RAW 264.7 macrophages” (Bioorg Med Chem Lett, 2012)

Assays:
[1] = system: RAW264.7; experiment: Cytotoxicity against mouse RAW264.7 cells by CCK assay; format: cell-based
[2] = system: RAW264.7; experiment: Antiinflammatory activity in mouse RAW264.7 cells assessed as inhibition of LPS-induced NO production after 24 hrs by Griess method; format: functional, cell-based; conditions: for IC50: RAW264.7, 24 h

Row | IC50 [2] [µM] | SMILES | Activity [1] | inhibition [2]
1 | 8.4 | C[C@@H]1CCC=C2C(=O)C=C[C@@H](O)[C@]21C | Non-toxic | Dose-dependent effect
2 | > 50 | C[C@@H]1CCC=C2C(=O)CC(=O)C[C@]21C | Non-toxic | –
3 | – | COc1cc([C@H]2OC[C@H]3[C@@H]2CO[C@@H]3c2ccc(O)c(OC)c2)ccc1O [(+)-PINORESINOL] | Non-toxic | –
4 | 33.5 | COc1cc([C@@H]2OC[C@@H]3[C@H]2CO[C@H]3c2ccc(O)c(OC)c2)ccc1O [(+)-PINORESINOL] | – | –
5 | > 50 | O=C(O)/C=C/c1ccc(O)cc1 [COUMARIC ACID] | Non-toxic | –
6 | > 50 | C[C@@H]1CC(=O)C=C2[C@H](O)C[C@@H]3[C@@H](C3(C)C)[C@]21C [DEBILON] | Non-toxic | –
7 | > 50 | COc1cc(C2OC2CO)ccc1O (centres undefined) [EPOXYCONIFERYL ALCOHOL] | Non-toxic | –
8 | > 50 | COc1ccc(/C=C/C(=O)O)cc1O [ISOFERULIC ACID] | Non-toxic | –
9 | 4.6 | C[C@@H]1C[C@H](O)C=C2C(=O)C=C[C@@H](O)[C@]21C [NARCHINOL B] | Non-toxic | Dose-dependent effect
10 | 21.6 | C[C@@H]1C[C@@H](O)C=C2C(=O)C=C[C@@H](O)[C@]21C [NARCHINOL C] | Non-toxic | Dose-dependent effect
11 | > 50 | C[C@H]1[C@H](C)CC[C@]2(C(=O)O)CC[C@]3(C)C(=CC[C@@H]4[C@@]5(C)CC[C@H](O)C(C)(C)[C@@H]5CC[C@]43C)[C@H]12 [URSOLIC ACID] | Non-toxic | –

Row | SMILES | IC50 [2] [µM] | Activity [1] | inhibition [2]
12 | C[C@@H]1C[C@@H](O)C=C2C(=O)C[C@H]3OOC(C)(C)[C@H]3[C@]21C [KANSHONE B] | 11.5 | Non-toxic | Dose-dependent effect
13 | C[C@@H]1CCC=C2C(=O)C[C@H]3OOC(C)(C)[C@H]3[C@]21C [NARDOSINONE] | 11.1 | Non-toxic | Dose-dependent effect
